Measured values as given in patent publication US5905149A, “Substituted quinolymethylen-oxindole analogues as tyrosine kinase inhibitors” (Pharmacia & Upjohn S.p.A, priority 1996, dated 1999).

Tests used:
[1] = biological target: p45 v-abl tyrosine kinase; assay: p45 v-abl kinase assay; type: biochemical, Abelson murine leukemia virus; conditions: (Val^5)-angiotensin II phosphorylation; peptide 2 mM, ATP 50 μM; pH 8.0; 30° C.; triplicate; read-out: Inhibition of p45 v-abl kinase, IC50
Method: p45 v-abl kinase purification
The enzyme used in our tests is the p45 v-abl tyrosine kinase which represents the catalytic domain of the Abelson tyrosine kinase (isolated from the Abelson murine leukemia virus). The p45 v-abl kinase is produced and isolated as described by Wang et al. in J.Biol.Chem. 260, 64 (1985) and by Ferguson et al. in J. Biol. Chem. 260, 3652 (1985) and in Biochem. J. 257, 321 (1989).
(Val^5)-angiotensin II phosphorylation is performed, by incubation with 40 ng of purified abl-kinase and (γ-^32 P) ATP, in 50 μl of buffer containing Tris-HCl 25 mM, pH 8.0, MgCl2 10 mM and dithiothreitol 0.1 mM (kinase buffer). The reaction mixture is incubated for the indicated time at 30° C. and the reaction stopped by adding 50 μl of 5% trichloracetic acid. After a brief incubation on ice the tubes are centrifuged. The supernatants are spotted on phosphocellulose paper squares (Whatman P-81) and washed extensively in acetic acid. The radioactivity bound to dried phosphocellulose squares is measured in a liquid scintillation counter. IC50 values are calculated from triplicated determination of each experimental point. Each inhibitor is tested at concentrations ranging from […] in the presence of fixed concentrations of peptide (2 mM) and ATP (50 μM).

[2] = test system: K562 cells, a human myelogenous leukemia cell line; assay: K562 cell growth inhibition assay; type: cell-based; conditions: 72 h, cell counting vs untreated control cells
Method: K562 cell growth inhibition assay
K562 cells, a human myelogenous leukemia cell line, were seeded into a 24 wells tissue culture plate (Falcon 3047) (10000/well) in the presence of increasing concentrations of the compounds. After 72 h, cells were harvested and were counted using a cell counter (Coulter Counter-ZM). The percent of inhibition was evaluated in respect to the untreated control cells.

`CCOC(=O)C(C)Oc1ccc(C=C2C(=O)Nc3ccccc32)c2cccnc12` (centres unmarked) [2-[5-(2-oxindol-3-ylidenemethyl)quinol-8-yloxy]propionic acid ethyl ester] was tested. Which IC50 [1] did it give?
Its IC50 is 15 µM.

What about the IC50 [2] of the same molecule?
The IC50 was 39.5 µM.
